Read-outs that look alike come from different tables or passages of the source.
Biological target: T1, human ANO1 channel (isoform acd) (Homo sapiens, UniProt Q5XXA6)
T1 construct: host or cells: HEK293T
T1 sequence (Q5XXA6 1-986): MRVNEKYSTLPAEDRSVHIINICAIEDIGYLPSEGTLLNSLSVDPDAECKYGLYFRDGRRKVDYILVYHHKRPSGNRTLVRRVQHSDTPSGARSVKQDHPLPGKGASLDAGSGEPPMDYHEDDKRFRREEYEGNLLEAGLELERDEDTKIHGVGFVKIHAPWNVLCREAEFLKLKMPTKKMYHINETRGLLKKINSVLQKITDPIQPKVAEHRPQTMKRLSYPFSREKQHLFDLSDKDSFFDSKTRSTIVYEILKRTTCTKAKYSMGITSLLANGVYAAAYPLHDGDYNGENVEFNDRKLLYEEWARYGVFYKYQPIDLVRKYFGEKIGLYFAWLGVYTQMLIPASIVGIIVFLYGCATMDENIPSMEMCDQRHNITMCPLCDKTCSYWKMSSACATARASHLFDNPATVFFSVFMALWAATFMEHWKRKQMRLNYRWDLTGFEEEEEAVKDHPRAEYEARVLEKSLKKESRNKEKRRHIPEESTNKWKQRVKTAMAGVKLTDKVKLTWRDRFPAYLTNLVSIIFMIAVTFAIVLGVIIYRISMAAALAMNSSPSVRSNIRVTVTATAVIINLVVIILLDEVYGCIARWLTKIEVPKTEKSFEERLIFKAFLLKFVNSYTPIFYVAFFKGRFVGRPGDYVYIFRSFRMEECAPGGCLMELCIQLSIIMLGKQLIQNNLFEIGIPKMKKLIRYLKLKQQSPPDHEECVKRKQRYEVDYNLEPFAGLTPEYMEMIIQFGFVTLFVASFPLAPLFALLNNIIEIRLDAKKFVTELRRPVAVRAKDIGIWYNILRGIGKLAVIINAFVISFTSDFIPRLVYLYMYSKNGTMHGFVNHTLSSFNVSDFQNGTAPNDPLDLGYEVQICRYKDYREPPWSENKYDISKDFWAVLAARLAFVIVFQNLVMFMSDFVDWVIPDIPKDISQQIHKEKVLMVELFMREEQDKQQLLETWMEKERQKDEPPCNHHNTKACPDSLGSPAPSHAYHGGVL
Assay: QPatch-48 automated whole-cell electrophysiology, cumulative five-concentration single-addition protocol
Format: cell-based
Procedure: HEK293T cells stably expressing the human ANO1 channel (isoform acd) were obtained from Scottish Biomedical. Cells were cultured in Sigma Minimum Essential Media containing 10% heat-inactivated fetal bovine serum, 1% penicillin/streptomycin, 1% glutamine, and […] geneticin. Cells were maintained in a 37°C, 5% CO2 environment. Cells were passaged every 3 days after they had reached ∼70% confluency and were not allowed to reach a density greater than 1–2 × 10^5 cells/cm^2 during routine culture. When subculturing, cells were rinsed once with room temperature 1 × phosphate-buffered saline (PBS; Ca^2+/Mg^2+ free), lifted with TrypLE Express, resuspended in prewarmed growth media, and counted using a hemocytometer. Cells were then plated in T150 flasks at a density of 2.9 × 10^4 cells/cm^2 to be either used in the assay or subcultured 72 h later.
On the day of the experiment, cells plated at a density of 2.9 × 10^4 cells/cm^2 72 h prior should be ∼70%–80% confluent. After cells were rinsed with prewarmed 1 × PBS (Ca^2+/Mg^2+ free), 3 mL of room temperature Detachin solution (Genlantis) was added to the flask and tilted gently two to three times to cover all the cells. Approximately 2 mL of Detachin was aspirated from the flask, leaving 1 mL on the cells, and then placed in the 37°C incubator for 5 min. Once cells had rounded up, the cells were dislodged by tapping the flask gently. The cells were then resuspended in 5 mL of warm serum-free media (EX-CELL ACF CHO Medium; Sigma; supplemented with 4 mM L-glutamine and 10 mM HEPES). A glass Pasteur pipette with a rubber bulb was then used to gently dissociate the cells from one another. Detachin will often leave cells as doublets or clumps, conditions that will disrupt seal formation on the QPatch. The cells were triturated ∼30 times and then, still using the Pasteur pipette, transferred into the QPatch Cell Hotel. This ensures that cells detach from one another leaving a suspension of single cells. A QStirrer was added to the Cell Hotel and the cell suspension was immediately placed on the QPatch device. Cells were utilized within 15 min.
Compounds were reconstituted in dimethyl sulfoxide (DMSO; Sigma) as 10 mM stock solutions. An automated dilution machine set up the microtiter plate (MTP ) by making 1:5 dilutions from a starting concentration of 30 μM. The concentration of DMSO was equal for all concentrations tested. Each MTP contained one row of a negative control (DMSO) and a positive control (benzbromarone). A total of eight compounds were run at a time. All compounds tested were produced in-house.
Whole-cell patch-clamp experiments were performed on a QPatch-48-automated electrophysiology platform (Sophion Biosciences) using the 48-channel, single-hole QPlate (resistance 2.0 ± 0.4 MΩ). The external buffer (in mM) was 140 NaCl, 4 KCl, 2 CaCl2, 1 MgCl2, 10 HEPES, 10 glucose, pH 7.4 (osmolarity = 300), and the internal buffer (in mM) was 110 CsCl, 20 TEA-Cl, 5.374 CaCl2, 1.75 MgCl2, 10 EGTA, 10 HEPES, 4 Na2ATP, pH 7.2 (osmolarity = 310). Cell positioning was set to a 5-s wait time with a positioning pressure of −60 mbar and a positioning time-out of 60 s. Resistance was set to increase 750% to ensure the success of positioning. To obtain a seal, pressure was increased to −70 mbar with an allowed pressure of −130 to −20 mbar and a holding pressure of −20 mbar. The holding potential was set to −70 mV and a 240-s time-out was set. The minimum seal resistance was set to 0.02 GΩ. To go whole cell, five 1-s suction pulses were applied starting at −180 mbar and increasing with −40 mbar increments with a pulse period of 10 s. Suction ramp and voltage zap protocols were kept standard, according to the default HEK cell settings. […] The suction ramp order of use was set to 2 with a ramp amplitude of −450 mbar and a ramp slope of 100 ms/mbar.
Once established in whole-cell configuration, cells are clamped to a holding potential (Vhold) of 0 mV.

[1] = half plate (24-well format), cumulative single-addition, n = 5, read-out: average IC50 (mean ± SD)
[2] = independent experiment 3, read-out: IC50s for independent experiments 3
[3] = independent experiment 4, read-out: IC50s for independent experiments 4
[4] = independent experiment 5, read-out: IC50s for independent experiments 5

| IC50 (QPatch, 1-min incubations, read-out: concentration inhibiting 50% of channel current) [nM] | IC50 [1] [nM] | IC50 (independent experiment 1, block at +100 mV, 250 nM internal free-calcium, read-out: IC50s for independent experiments 1) [nM] | IC50 (independent experiment 2, read-out: IC50s for independent experiments 2) [nM] | IC50 [2] [nM] | IC50 [3] [nM] | IC50 [4] [nM] | IC50 (IC50s for independent experiments 1, independent experiment 1, block at +100 mV, 250 nM internal free-calcium) [nM] | IC50 (IC50s for independent experiments 2, independent experiment 2) [nM] | IC50 (full 48-well plate format (with rundown), n = 1, read-out: IC50, full 48-well plate format) [nM] | Structure (SMILES) |
| --- | --- | --- | --- | --- | --- | --- | --- | --- | --- | --- |
| ~1000 | 1600 ± 390 | 1620 | 1430 | 1050 | 2090 | 1810 | – | – | – | O=C(Nc1ccc([N+](=O)[O-])cc1Cl)c1cc(Cl)ccc1O [Niclosamide] |
| – | 2540 ± 940 | – | – | 1310 | 2300 | 3180 | 3450 | 1510 | 730 | CCc1oc2ccccc2c1C(=O)c1cc(Br)c(O)c(Br)c1 [Benzbromarone] |
